Here are results for 1 molecule from patent US20080103189A1, “PREPARATION AND UTILITY OF SUBSTITUTED INDOLES” (Auspex Pharmaceuticals, Inc., priority 2006, published 2008).

For this data set the following is noted: topical or ocular, 5 microgram per mL. On the procedure:
Liver microsomal stability assays were conducted at 1 mg per mL liver microsome protein with an NADPH-generating system in 2% NaHCO3 (2.2 mM NADPH, 25.6 mM glucose 6-phosphate, 6 units per mL glucose 6-phosphate dehydrogenase and 3.3 mM MgCl2). Test compounds were prepared as solutions in 20% acetonitrile-water and added to the assay mixture (final assay concentration 5 microgram per mL) and incubated at 37° C. Final concentration of acetonitrile in the assay were <1%. Aliquots (50 μL) were taken out at times 0, 15, 30, 45, and 60 minutes, and diluted with ice cold acetonitrile (200 μL) to stop the reactions. Samples were centrifuged at 12000 RPM for 10 minutes to precipitate proteins. Supernatants were transferred to microcentrifuge tubes and stored for LC/MS/MS analysis of the degradation half-life of the test compounds.

Regarding `[2H]C([2H])(Cc1c[nH]c2ccc(CS(=O)(=O)N3CCCC3)cc12)N(C)C`, the “increase in the degradation half-life as compared to the non-isotopically enriched drug” value is recorded as 20-250%.
